Test results from ChEMBL document CHEMBL3853264 (Medchemcomm, 2016).

Key:
[1] = Fraction unbound in human plasma; type: ADME, cell-free
Canis familiaris = experiment: Hepatotoxicity in female dog assessed as decrease in alanine aminotransferase levels at >= 100 mg/kg/day, po measured over 14 days; type: toxicity, organism-based, Canis lupus familiaris; details: in vivo, 336 h
[2] = Drug metabolism in rat assessed as oxidation of chlorophenyl ring; type: ADME
[3] = Toxicity in dog assessed as histologic change in testes at 300 mg/kg/day, po measured over 14 days; type: organism-based, Canis lupus familiaris; details: in vivo, 336 h
[4] = Average plasma concentration in rat at 30 mg/kg, po administered as single dose measured on day 14; type: ADME, organism-based; details: in vivo
[5] = Toxicity in po dosed dog measured assessed as drug tolerance measured over 14 days; type: organism-based, Canis lupus familiaris; details: in vivo, 336 h
[6] = Fraction unbound in dog plasma; type: ADME, cell-free, Canis lupus familiaris
[7] = Intrinsic clearance in rat hepatocytes assessed per 10^6 cells; type: ADME, cell-based, Hepatocyte; details: read-out: CLH
[8] = Oral bioavailability in rat at 1 mg/kg; type: ADME, organism-based; details: in vivo
[9] = Intrinsic clearance in dog hepatocytes assessed per 10^6 cells; type: ADME, cell-based, Canis lupus familiaris, Hepatocyte; details: read-out: CLH
[10] = Drug metabolism in dog assessed as loss of chlorobenzonitrile moiety in presence of glutathione; type: ADME, Canis lupus familiaris
[11] = Average plasma concentration in dog at 30 mg/kg, po administered as single dose measured on day 14; type: ADME, organism-based, Canis lupus familiaris; details: in vivo
[12] = Renal clearance in rat; type: ADME; details: in vivo
Rattus norvegicus [13] = experiment: Cardiovascular toxicity in rat assessed as decrease in heart rate at 10 mg/kg, po measured over 14 days; type: organism-based; details: in vivo, 336 h
Cytochrome P450 1A2 = Cytochrome P450 1A2 (Homo sapiens, UniProt P05177); experiment: Inhibition of CYP1A2 (unknown origin); type: ADME
Cytochrome P450 2C8 = Cytochrome P450 2C8 (Homo sapiens, UniProt P10632); experiment: Inhibition of CYP2C8 (unknown origin); type: ADME
Cytochrome P450 2C19 = Cytochrome P450 2C19 (Homo sapiens, UniProt P33261); experiment: Inhibition of CYP2C19 (unknown origin); type: ADME
[14] = Dissociation constant, pKa of the compound; type: physicochemical
[15] = Intrinsic clearance in dog liver microsomes; type: ADME, Canis lupus familiaris; details: read-out: CLH
[16] = Intrinsic clearance in rat liver microsomes; type: ADME; details: read-out: CLH
[17] = Plasma clearance in rat at 0.5 mg/kg, iv and 1 mg/kg, po; type: ADME, organism-based
[18] = Unbound Cmax in rat at 30 mg/kg, po administered as single dose measured on day 14; type: ADME, organism-based; details: in vivo
[19] = Half life in rat at 0.5 mg/kg, iv and 1 mg/kg, po; type: ADME, organism-based; details: in vivo
[20] = Toxicity in po dosed rat measured over 14 days; type: organism-based; details: in vivo
Rattus norvegicus [21] = experiment: Toxicity in rat assessed as increase in mitosis in collecting ducts at 300 mg/kg/day, po measured over 14 days by microscopic analysis; type: organism-based; details: in vivo, 336 h
Cytochrome P450 2C9 = Cytochrome P450 2C9 (Homo sapiens, UniProt P11712); experiment: Inhibition of CYP2C9 (unknown origin); type: ADME
Sequence of Cytochrome P450 2C9 (P11712 whole entry): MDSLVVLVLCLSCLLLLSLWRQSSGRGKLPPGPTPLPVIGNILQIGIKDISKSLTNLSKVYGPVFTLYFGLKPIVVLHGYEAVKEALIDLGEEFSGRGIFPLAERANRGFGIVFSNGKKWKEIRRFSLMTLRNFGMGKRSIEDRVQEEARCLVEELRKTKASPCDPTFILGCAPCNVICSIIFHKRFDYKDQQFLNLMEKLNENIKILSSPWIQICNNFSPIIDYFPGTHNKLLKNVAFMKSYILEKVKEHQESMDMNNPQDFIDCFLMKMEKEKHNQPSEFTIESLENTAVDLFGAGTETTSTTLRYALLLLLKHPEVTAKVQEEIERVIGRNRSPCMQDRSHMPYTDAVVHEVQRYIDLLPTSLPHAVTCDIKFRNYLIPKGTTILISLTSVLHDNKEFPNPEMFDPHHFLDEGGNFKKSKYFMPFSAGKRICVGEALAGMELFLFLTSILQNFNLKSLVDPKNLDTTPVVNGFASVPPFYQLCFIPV

Sequence of Cytochrome P450 2C19 (P33261 whole entry): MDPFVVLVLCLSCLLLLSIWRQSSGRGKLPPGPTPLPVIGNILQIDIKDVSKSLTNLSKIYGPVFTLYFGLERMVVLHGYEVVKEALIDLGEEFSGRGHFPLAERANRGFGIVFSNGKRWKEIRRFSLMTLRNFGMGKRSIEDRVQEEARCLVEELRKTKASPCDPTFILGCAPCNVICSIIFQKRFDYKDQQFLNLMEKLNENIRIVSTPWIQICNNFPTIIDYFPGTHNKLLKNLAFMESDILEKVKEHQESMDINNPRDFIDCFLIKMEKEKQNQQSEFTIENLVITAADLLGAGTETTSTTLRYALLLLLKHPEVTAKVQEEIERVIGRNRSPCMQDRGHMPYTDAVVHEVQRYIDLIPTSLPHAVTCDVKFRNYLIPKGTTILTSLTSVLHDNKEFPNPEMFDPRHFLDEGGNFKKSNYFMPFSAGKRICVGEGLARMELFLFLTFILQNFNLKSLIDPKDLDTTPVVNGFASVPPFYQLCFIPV
Sequence of Cytochrome P450 1A2 (P05177 whole entry): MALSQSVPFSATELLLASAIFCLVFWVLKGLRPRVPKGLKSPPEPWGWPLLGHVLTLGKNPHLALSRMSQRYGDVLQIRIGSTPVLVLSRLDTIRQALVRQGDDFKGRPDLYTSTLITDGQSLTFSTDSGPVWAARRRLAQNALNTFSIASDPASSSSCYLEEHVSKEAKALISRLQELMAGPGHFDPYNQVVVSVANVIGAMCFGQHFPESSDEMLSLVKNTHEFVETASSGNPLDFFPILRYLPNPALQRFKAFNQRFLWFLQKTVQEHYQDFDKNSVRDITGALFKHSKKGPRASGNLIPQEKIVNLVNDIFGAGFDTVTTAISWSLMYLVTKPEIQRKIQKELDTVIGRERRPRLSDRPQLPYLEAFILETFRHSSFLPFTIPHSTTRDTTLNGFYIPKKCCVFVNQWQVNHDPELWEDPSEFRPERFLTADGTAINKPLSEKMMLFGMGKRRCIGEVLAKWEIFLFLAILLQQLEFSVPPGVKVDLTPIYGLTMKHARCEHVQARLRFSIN
Sequence of Cytochrome P450 2C8 (P10632 whole entry): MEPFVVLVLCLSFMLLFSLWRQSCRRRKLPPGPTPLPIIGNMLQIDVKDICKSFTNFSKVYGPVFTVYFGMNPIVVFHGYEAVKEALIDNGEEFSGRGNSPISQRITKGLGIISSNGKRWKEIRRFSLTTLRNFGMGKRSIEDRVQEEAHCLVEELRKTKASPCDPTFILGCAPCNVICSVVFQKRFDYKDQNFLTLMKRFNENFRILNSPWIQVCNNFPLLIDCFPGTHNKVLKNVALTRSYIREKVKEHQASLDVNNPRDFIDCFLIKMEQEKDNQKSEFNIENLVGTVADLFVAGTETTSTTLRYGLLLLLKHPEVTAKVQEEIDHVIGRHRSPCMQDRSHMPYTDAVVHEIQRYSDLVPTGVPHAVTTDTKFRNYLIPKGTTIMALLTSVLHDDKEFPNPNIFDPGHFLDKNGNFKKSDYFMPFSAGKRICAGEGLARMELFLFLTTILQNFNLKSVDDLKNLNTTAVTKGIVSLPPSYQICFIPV

N#Cc1ccc(Oc2ccc(S(=O)(=O)Nc3ccc(F)cn3)cc2C#N)cc1Cl
fraction unbound [1]: 0.0012 | Activity (Canis familiaris): Toxic | Drug metabolism [2]: Metabolite_Detected | Activity [3]: Toxic | Cave [4]: 123 nM | Activity [5]: <= 300 mg kg-1 | fraction unbound [6]: 0.0041 | hepatocyte CLint [7]: 10 µL/min/1e6 cells | bioavailability [8]: 100% | hepatocyte CLint [9]: < 6 µL/min/1e6 cells | Drug metabolism [10]: Metabolite_Detected | Cave [11]: 3980 nM | CL renal [12]: 0.0001 mL/min/kg | Activity (Rattus norvegicus [13]): Toxic | IC50 (Cytochrome P450 1A2): > 30 µM | IC50 (Cytochrome P450 2C8): 11.9 µM | IC50 (Cytochrome P450 2C19): 17.2 µM | pKa [14]: 5.8 | microsomal CLint [15]: < 18 µL/min/mg | microsomal CLint [16]: < 14 µL/min/mg | clearance [17]: 0.39 mL/min/kg | fCmax [18]: 179 nM | half-life [19]: 6.7 h | MTD at 336 h [20]: 100 mg/kg | Activity (Rattus norvegicus [21]): Toxic | IC50 (Cytochrome P450 2C9): 4.2 µM
